From ChEMBL document CHEMBL4418269, “Novel Quinoline-Hepcidine Antagonists” (2012)

Target: T1, Hepcidin (Homo sapiens) (UniProt P81172)
T1 sequence (whole entry): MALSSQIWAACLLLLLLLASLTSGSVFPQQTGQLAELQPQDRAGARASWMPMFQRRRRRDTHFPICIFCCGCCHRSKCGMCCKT
Test: Inhibition of human hepcidin-stimulated recombinant C-terminal Halo-tagged human FPN internalization in MDCK cells at 10 uM incubated for 15 to 20 mins by Halo-tagged TMR based fluorescence assay relative to control
Format: cell-based

SMILES	inhibition
Oc1c(C(Nc2ccccn2)c2cccnc2)cc(Cl)c2cccnc12 (stereo unspecified)	< 50%
O=C(Oc1c(CN2CCOCC2)cc(Cl)c2cccnc12)c1ccco1	< 50%
O=C(Oc1c(CN2CCOCC2)cc(Cl)c2cccnc12)c1ccccc1	< 50%
COc1cc(C(=O)Oc2c(CN3CCOCC3)cc(Cl)c3cccnc23)cc(OC)c1OC	< 50%

Continued, values first:

inhibition	SMILES
> 50%	Oc1c(C(c2ccccn2)N2CCOCC2)ccc2cccnc12 (stereo unspecified)
< 50%	Oc1c(C(c2ccc(Cl)cc2)N2CCOCC2)cc(Cl)c2cccnc12 (stereo unspecified)
